Source: PMC12195967, “Cobalt(II) Complexes of 4′–Nitro–Fenamic Acid: Characterization and Biological Evaluation” (Molecules, 2025)
Read-outs that look alike come from different tables or passages of the source.

Key:
CT DNA = conditions: cited from earlier work
[1] = ABTS radical cation scavenging; conditions: compounds 0.1 mM; absorbance 734 nm after 1 min
Experimental: The ABTS-scavenging was measured through the discoloration of a dark green solution containing the cationic radical ABTS^•+, which was induced from the oxidation derived from hydrogen-donating antioxidants, either complexes or standards, and is often considered a marker of total oxidation capacity. […] Such an increase in activity upon coordination is expected for metal–NSAID complexes.
(§1) S1 Antioxidant activity assay
(§2) The antioxidant activity of the compound was evaluated via the ability to scavenge in vitro free radicals such as DPPH and ABTS and to reduce H2O2. All the experiments were carried out at least in triplicate and the standard deviation of absorbance was less than 10% […]
S1.2 Assay of radical cation ABTS−scavenging activity
The ABTS assay was performed to determine the activity of the compounds to scavenge the radical cation ABTS. Initially, a water solution of ABTS was prepared (2 mM).
ABTS radical cation (ABTS+·) was produced by the reaction of ABTS stock solution with potassium persulfate (0.17 mM) and the mixture was stored in the dark at room temperature for 12−16 h before its use. The ABTS was oxidized incompletely because the stoichiometric reaction ratio of ABTS and potassium persulfate is 1:0.5. The absorbance became maximal and stable only after more than 6 h of reaction although the oxidation of the ABTS started immediately. The radical was stable in this form for more than 2 days when allowed to stand in the dark at room temperature. Afterwards, the ABTS+· solution was diluted in ethanol to an absorbance of 0.70 at 734 nm and 10 μL of diluted compounds or standards (0.1 mM) in DMSO were added. The absorbance was recorded out exactly 1 min after initial mixing.
The ABTS–radical scavenging activity of the compounds was expressed as the percentage inhibition of the absorbance of the initial ABTS solution (ABTS%). […]

[2] = Reduction of hydrogen peroxide; conditions: compounds 0.1 mM; phosphate buffer pH 7.4; 10 min
Experimental: Harmful hydroxyl radicals are released when hydrogen peroxide interacts with transition metal ions, leading to oxidative stress. Consequently, both oxidative stress and the production of reactive oxygen species could be reduced by ^•OH scavengers and H2O2 reducing agents.
as §1
The antioxidant activity of the compound was evaluated via the ability to scavenge in vitro free radicals such as DPPH and ABTS and to reduce H2O2. […]
S1.3 Reduction of hydrogen peroxide
The ability of the compounds to reduce hydrogen peroxide (H2O2) was estimated according to the method described in the literature. The reaction mixture contained 20 μL of each of the tested compounds (0.1 mM) and 5 μL H2O2 solution (40 mM) in phosphate […]
buffer (50 mM, pH 7.4). The absorbance was measured at 230 nm after 10 min. The antioxidant activity (reduction of H2O2) of the compounds was expressed as the percentage decrease of the initial H2O2 solution (H2O2%). […]

DPPH radical scavenging = conditions: compounds 0.1 mM, DPPH 0.1 mM in ethanol
Experimental: Antioxidant compounds able to neutralize DPPH radicals are increasingly recognized due to their capability of combating cancer, slowing down the aging process and regulating inflammation. As a result, they could potentially offer protection against rheumatoid arthritis and inflammation. […] In this experiment, NDGA and BHT were used as reference compounds and measurements took place at 30 min and 60 min. […] Such low scavenging activity of DPPH radicals is rather common for metal–NSAID complexes.
as §1, §2
S1.1 Determination of the reducing activity of the radical DPPH
To an ethanolic solution of DPPH (0.1 mM) an equal volume solution of the compounds (0.1 mM) in ethanol was added. Absolute ethanol was also used as control solution. The absorbance at 517 nm was recorded at room temperature after 30 and 60 min in order to examine the possible existence of a potential time−dependence of the DPPH radical scavenging activity.[1] The DPPH−scavenging activity of the compounds was expressed as the percentage reduction of the absorbance values of the initial DPPH solution (DPPH%). NDGA and BHT were used as reference compounds. […]

[3] = commercially available fenamates

For `CC[n+]1c(-c2ccccc2)c2cc(N)ccc2c2ccc(N)cc21` [EB, ethidium bromide], the “DNA-binding constant Kb” value (CT DNA; classic DNA intercalator) is given as 123000 M⁻¹.

In the case of `Cc1c(Cl)cccc1Nc1ccccc1C(=O)O` [tolfenamic acid], the “DNA-binding constant Kb” value (CT DNA; [3]) is given as 50000 M⁻¹.

In the case of `O=C(O)c1ccccc1Nc1cccc(C(F)(F)F)c1` [flufenamic acid], the “DNA-binding constant Kb” value (CT DNA; [3]) is given as 270000 M⁻¹.

With `Cc1c(C)c2c(c(C)c1O)CCC(C)(C(=O)O)O2` (stereo not shown) [Trolox, 6–hydroxy–2,5,7,8–tetramethylchroman–2–carboxylic acid, reference compound] the “%ABTS radical scavenging activity (ABTS%)” value [1] was 96.50 ± 0.05%.

With `O=C1O[C@H]([C@@H](O)CO)C(O)=C1O` [L-ascorbic acid, reference compound] the “H2O2-reducing ability (H2O2%)” value [2] was 58.90 ± 0.52%.

In the case of `CC(Cc1ccc(O)c(O)c1)C(C)Cc1ccc(O)c(O)c1` (stereo not shown) [NDGA, nordihydroguaiaretic acid, reference compound], the “%DPPH-scavenging ability (DPPH%), 30 min” value (DPPH radical scavenging) is reported as 94.33 ± 0.11% and the “%DPPH-scavenging ability (DPPH%), 60 min” value (DPPH radical scavenging) is reported as 90.47 ± 0.42%.

With `Cc1cc(C(C)(C)C)c(O)c(C(C)(C)C)c1` [BHT, butylated hydroxytoluene, reference compound] the “%DPPH-scavenging ability (DPPH%), 30 min” value (DPPH radical scavenging) was 70.83 ± 0.03% and the “%DPPH-scavenging ability (DPPH%), 60 min” value (DPPH radical scavenging) was 83.39 ± 0.39%.

For `Cc1cccc(Nc2ccccc2C(=O)O)c1C` [mefenamic acid], the “DNA-binding constant Kb” value (CT DNA; [3]) is given as 105000 M⁻¹.
